In publication PMC7018972, “Novel and selective inactivators of Triosephosphate isomerase with anti-trematode activity” (Scientific Reports, 2020):
pIC50: −log10 of the molar value.

Target: Fasciola hepatica TIM (FhTIM) (Fasciola hepatica, UniProt S4UI50)
Assay: Inhibition of recombinant FhTIM, coupled enzyme assay
Type: biochemical
Settings: Figure 1, ranges of inhibitory activity; read-out: IC50 range
Method: Expression and purification of proteins: FhTIM, RabbitTIM and HsTIM were expressed in Escherichia coli and purified as described in the literature[31],[37]. […] Before use, extensive dialysis against 100 mM triethanolamine/10 mM EDTA (pH 7.4) was performed. […] Enzymatic activity was determined following the conversion of glyceraldehydes-3-phosphate into dihydroxyacetone phosphate in a coupled enzyme assay. The decrease in absorbance at 340 nm was followed in a multiplate reader VarioskanTM Flash Multimode Reader (Thermo ScientificTM, Waltham, MA, USA) at 38 °C. The reaction mixture (1 mL, pH 7.4) contained 100 mM triethanolamine, 10 mM EDTA, 0.2 mM NADH, 1 mM glyceraldehydes-3-phosphate and 0.9 units of α-glycerol phosphate dehydrogenase. The reaction was initiated by the addition of 5 ng/mL of the TIM of interest. For the inhibition studies, TIM was incubated at a concentration of 5 mg/mL in a buffer containing 100 mM triethanolamine, 10 mM EDTA, pH 7.4 and 10% of DMSO at 37 °C for 1 h. The mixture also contained the compounds, dissolved in DMSO, at the indicated concentrations. After 1 h, 10 µL were withdrawn and added to a final volume of 100 µL of the reaction mixture for the activity assay. The inhibition assay was performed in a 96-well microplate. […] The experiments were performed in triplicate in two independent experiments.

Sequence of Fasciola hepatica TIM (FhTIM) (S4UI50 entry or part of it): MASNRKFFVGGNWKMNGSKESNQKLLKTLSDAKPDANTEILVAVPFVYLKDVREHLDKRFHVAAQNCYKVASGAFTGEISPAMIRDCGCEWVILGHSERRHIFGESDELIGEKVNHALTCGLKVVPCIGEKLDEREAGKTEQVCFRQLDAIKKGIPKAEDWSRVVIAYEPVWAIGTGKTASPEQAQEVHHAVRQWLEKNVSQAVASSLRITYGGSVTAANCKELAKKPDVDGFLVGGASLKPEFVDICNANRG

Structure (SMILES)	pIC50
O=C1C(=Cc2ccc([N+](=O)[O-])cc2)C(=O)N(Cc2ccccc2)S(=O)(=O)N1Cc1ccccc1 [Compound 111]	> 4.30

Same assay, conditions: Table 1S, screening of 340 compounds in FhTIM; table head prints no unit, µM per b8/b9; read-out: IC50

Structure (SMILES)	IC50 [µM]
CN(CC=Cc1ccccc1)Cc1ccc2c(c1)=[N+]([O-])C(C)(C)[N+]=2[O-] [Compound 499]	> 100
N#Cc1c2ccccc2[n+]([O-])n1C/C=C/c1ccccc1 [Compound 500]	> 100
O=C(CBr)C(=O)CSC(=NN=Cc1ccccc1)Nc1ccccc1 [Compound 777]	> 100
N#Cc1c2ccccc2[n+]([O-])n1CCC=Cc1ccc(Cl)cc1 [Compound 501]	> 100
[O-][n+]1onc(-c2ccccc2)c1CN1CCOCC1 [Compound 352]	> 100
Cc1c(C(=O)NN=Cc2ccccc2)no[n+]1[O-] [Compound 824]	> 100
S=C(NCc1ccccc1)NCc1ccccc1 [Compound 1085]	> 100
CC12CCC(O)CC1=CCC1C2CCC2(C)C(C(=O)C=Cc3ccccc3Cl)CCC12 (centres unmarked) [Compound 1259]	> 100
C=CCN(C(C)=O)C1=NNC(c2ccc([N+](=O)[O-])s2)S1 (centres unmarked) [Compound 287]	> 100
S=C(NN=Cc1cccs1)Nc1ccccc1 [Compound 279]	> 100
C(=NN=c1scc(-c2ccccc2)n1-c1ccccc1)c1ccccc1 [Compound 270]	> 100
NC1=NS(=O)(=O)N(CCC2CCCCC2)c2nc(-c3ccc(F)cc3)[nH]c21 [Compound 706]	> 100
CN1CC(=Cc2ccccc2)C(=O)C(=Cc2ccccc2)C1 [Compound 357]	> 100
C=CCn1c(C(=O)CN2CCN(CC=Cc3ccccc3)CC2)csc1=NN=CC=Cc1ccco1 [Compound 1112]	> 100
C=CCn1c(C(=O)NN2CCOCC2)csc1=NN=CC=Cc1ccco1 [Compound 1124]	> 100
O=[N+]([O-])c1ccc2c(c1)c(O)nn2CCOCCBr [Compound 517]	> 100
C=CCn1c(-c2ccc(Cl)cc2)csc1=NN=C/C=C/C=C/c1cccs1 [Compound 311]	50 to 100
Nc1nc(-c2ccc([N+](=O)[O-])cc2)cs1 [Compound 1098]	> 100
COc1ccc(C=Cc2c(C)[n+]([O-])nc[n+]2[O-])cc1 [Compound 218]	> 100
C=CCn1c(-c2ccccc2)csc1=NN=Cc1ccc([N+](=O)[O-])s1 [Compound 147]	> 100
C=CCn1c(-c2ccc([N+](=O)[O-])cc2)csc1=NN=Cc1ccc([N+](=O)[O-])s1 [Compound 146]	> 100
NC(=S)NN=Cc1ccc([N+](=O)[O-])s1 [Compound 283]	> 100

Structure (SMILES)	IC50 [µM]
COc1ccc(NC(=O)CCl)cc1 [Compound 379]	> 100
C=CCn1c(C(=O)CN2CCSCC2)csc1=NN=CC=Cc1ccco1 [Compound 1116]	> 100
CC(=O)N(C1=NN(C(C)=O)C(c2ccc([N+](=O)[O-])s2)S1)c1ccccc1 (centres unmarked) [Compound 130]	> 100
C=CCNC(=S)NN=Cc1ccc(SC)cc1 [Compound 281]	> 100
C=CCn1c(-c2csc(=NN=CC=Cc3cccs3)n2CC=C)csc1=NN=CC=Cc1cccs1 [Compound 1118]	> 100
N#CSCC(=O)c1ccccc1 [Compound 811]	> 100
C=CCNC(=S)NN=Cc1ccco1 [Compound 69]	> 100
C=CCn1c(-c2ccc(OC)cc2)csc1=NN=CC=Cc1cccs1 [Compound 1133]	> 100
C=CCn1c(C)csc1=NN=Cc1ccc([N+](=O)[O-])s1 [Compound 143]	50 to 100
C=CCNC(=S)NN=Cc1ccnc2ccccc12 [Compound 308]	50 to 100
C=CCNC(=S)NN=Cc1ccc(C)o1 [Compound 788]	> 100
[O-][n+]1onc2ccc(C=NNC(=S)Nc3ccccc3)cc21 [Compound 41]	> 100
C=CCn1c(-c2csc(=NN=Cc3ccccc3)n2-c2ccccc2)csc1=NN=CC=Cc1ccco1 [Compound 782]	> 100
O=C1C(=Cc2ccc([N+](=O)[O-])s2)C(=O)N(C2CCCCC2)S(=O)(=O)N1C1CCCCC1 [Compound 113]	> 100
COc1ccc(C=O)cc1-c1cc(C=O)ccc1OC [Compound 237]	> 100
C=CCn1c(-c2ccc(Cl)cc2)csc1=NN=Cc1ccc2no[n+]([O-])c2c1 [Compound 304]	> 100
O=[N+]([O-])c1ccc2c(c1)c(OCc1ccccc1)nn2CCOCCBr [Compound 516]	> 100
N#CSc1ccc(C=O)cc1[N+](=O)[O-] [Compound 670]	100
Cc1nnc[n+]([O-])c1CC(c1ccc([N+](=O)[O-])cc1)N1CCOCC1 (centres unmarked) [Compound 360]	> 100
C=CCN1C(=O)CSC1=NN=CC=CC=Cc1cccs1 [Compound 312]	> 100
NNC(=O)c1ccccn1 [Compound 717]	> 100
Nc1nc(-c2ccc(Cl)cc2)cs1 [Compound 813]	> 100

Structure (SMILES)	IC50 [µM]
C=CCn1c(C(=O)O)csc1=NN=Cc1ccc(S(=O)(=O)O)o1 [Compound 913]	> 100
CCOC(=O)c1nc2ccc([N+](=O)[O-])cc2n1O [Compound 546]	> 100
CCOC(=O)c1cc2c(n1CC)C(=O)C(Oc1ccc(Cl)cc1)=CC2=O [Compound 1129]	> 100
CN(C/C=C/c1ccccc1)CCOCCn1nc(OCc2ccccc2)c2cc([N+](=O)[O-])ccc21 [Compound 508]	> 100
C=CCNC(=S)NN=Cc1ccc(Cl)cc1 [Compound 261]	> 100
Cc1ccc(C=CC=CC(C=CC=Cc2ccc(C)o2)=NN2CCN(CC=Cc3ccccc3)CC2)o1 [Compound 1102]	> 100
CC(=O)N(C1=NN(C(C)=O)C(c2cccs2)S1)c1ccccc1 (centres unmarked) [Compound 284]	> 100
CC1(C)[N+]([O-])=c2ccc(Cl)cc2=[N+]1[O-] [Compound 532]	50 to 100
CN1CC(=CC=Cc2cccs2)C(=O)C(=CC=Cc2cccs2)C1 [Compound 1285]	> 100
C=CCN1C(=O)CSC1=NN=C(C)[C@H]1CC[C@H]2[C@@H]3CC=C4CC(O)CC[C@]4(C)[C@H]3CC[C@]12C (some centres unmarked) [Compound 1125]	> 100
O=c1c2cc([N+](=O)[O-])ccc2n2n1CCCCC2 [Compound 637]	> 100
O=C(C=CC=Cc1ccco1)C=CC=Cc1ccco1 [Compound 793]	> 100
C=CCn1c(C(=O)CN2CCN(c3ccccc3)CC2)csc1=NN=CC=Cc1ccco1 [Compound 1099]	> 100
O=C1CSC(=NN=CC=Cc2ccco2)N1c1ccccc1 [Compound 282]	> 100
C=CCNC(=S)NN=C(C)c1cc2ccccc2o1 [Compound 787]	> 100
O=C(O)c1csc(=NN=CC=CC=Cc2cccs2)n1-c1ccccc1 [Compound 1136]	> 100
O=C(/C=C/c1ccc([N+](=O)[O-])o1)N1CCN(C/C=C/c2ccccc2)CC1 [Compound 51]	> 100
O=C1C(=CC=Cc2ccccc2)CCC1=CC=Cc1ccccc1 [Compound 1246]	50 to 100
CNc1ccc(C)cc1[N+](=O)[O-] [Compound 651]	> 100
Cc1c(C=Cc2ccc([N+](=O)[O-])s2)ncn[n+]1[O-] [Compound 214]	> 100
NC1=NS(=O)(=O)N=C(N)C1=Cc1ccc([N+](=O)[O-])o1 [Compound 117]	> 100
O=C(C=Cc1cccc2ccccc12)c1ccccc1O [Compound 1269]	> 100

Structure (SMILES)	IC50 [µM]
C=CCn1c(C)csc1=NN=Cc1ccc2ccccc2c1 [Compound 904]	> 100
CCOC(=O)C=Cc1ccc([N+](=O)[O-])o1 [Compound 66]	> 100
CC(/C=N/N1CCSCC1)=C\c1ccco1 [Compound 878]	50 to 100
C=CCN1C(=O)CSC1=NN=Cc1ccc(Cl)cc1 [Compound 260]	> 100
C=CCn1c(-c2ccccc2)csc1=NN=Cc1ccc2ccccc2c1 [Compound 908]	50 to 100
O=C1CCCC2=C1C(c1ccc(C(=O)O)cc1)c1ccc3ccccc3c1N2 (centres unmarked) [Compound 698]	> 100
CN1CC(=CC=Cc2ccco2)C(=O)C(=CC=Cc2ccco2)C1 [Compound 1282]	> 100
Cc1ccc(/C=C/C=C/C(=O)/C=C/C=C/c2ccc(C)o2)o1 [Compound 1108]	> 100
O=C1C(=Cc2cccs2)CCC1=Cc1cccs1 [Compound 1248]	> 100
O=[N+]([O-])c1ccc2c(c1)c(O)nn2CCOCCN1CCCCC1 [Compound 459]	> 100
O=C(C=CC=Cc1cccs1)C=CC=Cc1cccs1 [Compound 798]	> 100
ON=Cc1ccc(O)cc1 [Compound 1113]	> 100
Cc1nnc[n+]([O-])c1/C=C/c1ccc([N+](=O)[O-])s1 [Compound 361]	100
Cc1c(C=NNC(N)=S)no[n+]1[O-] [Compound 1283]	> 100
O=C1C(=Cc2ccc([N+](=O)[O-])cc2)C(=O)N(Cc2ccccc2)S(=O)(=O)N1Cc1ccccc1 [Compound 111]	< 25
Brc1ccc(-c2c[se]c(=NN=CC=Cc3ccccc3)n2CCN2CCOCC2)cc1 [Compound 1222]	50 to 100
C=CCN1C(=O)C(CC(=O)O)SC1=NN=Cc1cccs1 (centres unmarked) [Compound 1139]	50 to 100
C=CCn1c(C(=O)O)csc1=NN=CC=Cc1cccs1 [Compound 1126]	> 100
O=[N+]([O-])c1ccc(C=CC=NNC(=S)Nc2ccccc2)o1 [Compound 54]	> 100
